# Reference: patent US20190352276A1, “INHIBITORS OF BRUTON'S TYROSINE KINASE” (Joint Stock Company "Biocad", priority 2016, published 2019)
# Tests used:
# [1] = tested on: Mino (mantle cell lymphoma); experiment: Antiproliferative activity, Mino cells (Alamar Blue); format: cell-based; details: Homo sapiens, Table 10, 72 h, average of several tests
# Summary of the method: (§1)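 IC50 values come from a four-parameter logistic fit of Alamar Blue fluorescence (540 nm excitation, 590 nm emission) read 14-16 h after reagent addition. Before that, the lymphoma lines, about 3*10^4 cells per well in 10% FBS RPMI-1640, were incubated with compound for 72 h at 37 °C, keeping final DMSO below 1%.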
# [2] = tested on: Z-138 (mantle cell lymphoma); experiment: Antiproliferative activity, Z-138 cells (Alamar Blue); format: cell-based; details: Homo sapiens, Table 10, 72 h, average of several tests
# Summary of the method: as §1
# [3] = tested on: DOHH2 (follicular lymphoma); experiment: Antiproliferative activity, DOHH2 cells (Alamar Blue); format: cell-based; details: Homo sapiens, DOHH-2, Table 10, 72 h, average of several tests
# Procedure: Antiproliferative activity of BTK inhibitors was measured in cell-based bioassay on B-cells cultures: Mino (mantle cell lymphoma, ATCC® CRL-3000™), Z-138 (mantle cell lymphoma, ATCC® CRL-3001™) and DOHH2 (follicular lymphoma, Creative Bioarray CSC-C0219) using cell viability reagent Alamar Blue (Invitrogen, #DAL 1100). Cells were cultured in 10% FB S-supplemented (HyClone, #SH3008803/Gibco, #16140-071) RPMI-1640 (PanEco, #S330p) for at least 1 passage after thawing, washed with PBS and passaged in 96-well culture plates (Corning, #3599) with growth medium with 10% FBS (HyClone, #SH3008803/Gibco, #16140-071) and antibiotic (50 μg/ml of gentamicin (Biolot, #1.3.16))≈3*10^4 cells in 50 μl of medium per well.
# The compounds were dissolved in DMSO and diluted with the assay medium to final concentrations ranging from […]. 150 μl of each diluted compound were then added to each well (final concentration of DMSO was less than 1%) and incubated at 37° C. in an incubator under 5% of CO2 for 72 h. After incubation, 20 μl of Alamar Blue reagent (Invitrogen, #DAL1100) were added to each well. The plates were shaked on an orbital shaker (Biosan, Latvia) and then incubated for 14-16 hours at 37° C. in the incubator.
# The number of living cells were estimated, measuring the fluorescence signal at the excitation wavelength (REx) of 540 nm and the emission wavelength (λEm) of 590 nm on a microplate reader (Tecan Infinite M200Pro, Switzerland).
# For each compound, IC50 was calculated using Magellan 7.2 software (Tecan, Switzerland) approximating experimental points by four-parameter logistic model with the optimization by Levenberg-Marquardt.
# [4] = General cytotoxicity on HepG2 cells (CC50; therapeutic index CC50 HepG2/IC50 Mino); format: cell-based; details: human, HepG2 cells (hepatocellular carcinoma); Table 10; 72 hours, Alamar Blue; average of several tests
# Summary of the method: (§2)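 Alamar Blue viability after 72 h exposure to compounds (final 200 μM–4 μM) gave CC50; HepG2 plated 2*10^4/well in DMEM 24 h beforehand. Therapeutic index expressed as ratio of HepG2 CC50 to Mino antiproliferative IC50.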
# [5] = tested on: HepG2 cells (hepatocellular carcinoma); experiment: as above; format: cell-based; details: Table 10; therapeutic index
# Summary of the method: as §2
# [6] = Stability in human blood plasma; details: 10 μM in pooled human blood plasma, incubated 4 hours at 37° C.
# [7] = Permeability through the monolayer of Caco-2 cells; format: in vitro ADME; details: human; for Papp A→B at 2 h, 10 μM / Papp B→A at 2 h, 10 μM: 2 h at 37° C.; for efflux ratio at 2 h, 10 μM: read-out: efflux (Papp B-A/Papp A-B)
# Text: Assessment of permeability through the monolayer of Caco-2 cells allows to evaluate the ability of the candidate compounds to penetrate through biological membranes by active and passive transport.
# Caco-2, the cells of the intestinal epithelium, had been cultured in transwell plate inserts with the filters (with pores of 0.4 μm, BD Falcon with High Density, #353495) for 21 days, and then the integrity of the monolayer were estimated with Lucifer Yellow dye (Sigma-Aldrich, USA) by standard protocol. When setting the A→B transfer, solutions of test substances were added in a buffer with pH 6.5 (Hanks solution, 10 mM HEPES, 15 mM glucose solution) with the concentration of 10 μM into the upper chamber; the lower chamber was filled with a buffer with pH 7.4 (Hanks solution, 10 mM HEPES, 15 mM glucose solution, 1% BSA). When setting B→A transfer, the upper chamber was filled with the buffer with pH 6.5, and solutions of the test substances were added in the buffer with pH 7.4 at the concentration of 10 μM in the lower chamber. Propranolol was used as a control substance (as it has high permeability).
# We used gradient elution (1 mL/min flow rate). We determined the areas of peaks corresponding to the compounds. On the basis of peak areas in the calibration standards we determined the concentration of compound in the initial solution and in the samples from the wells of the upper and lower chambers.
# Papp, permeability through the cell layer, was calculated using the following formula:
# Papp=(C(t)*V)/(C(0)*t*Area), where
# Papp is the effective constant of permeability, m/s V is the volume of solution (0.8 ml in A→B test, 0.2 ml in B→A test), ml Area is the surface area of the membrane (0.33 cm^2), cm^2 t is the time of incubation (7200 sec), sec C(0) is the concentration of the initial solution, μM C(t) is the concentration of the solution after 2 hours (the concentration in the sample from the well of the lower chamber in A→B test; the concentration in the sample from the well of the top chamber in B→A test), μM
# The value was calculated with the following formula:
# efflux=Papp B-A/Papp A-B, where
# Papp A-B is the value of the permeability in the direct test (A→B); Papp B-A is the value of the permeability in the backward test in (B→A).
# [8] = Chemical stability in artificial gastric fluid (SGF without enzymes); details: 10 μM in SGF without enzymes, pH=1.4, 37° C.
Structure (SMILES),IC50 [1],IC50 [2],IC50 [3],CC50 at 72 h [4],CC50 (HepG2)/IC50 (Mino) [5],"Amount of substance in the sample, % (stability in human blood plasma) [6]","Papp A→B at 2 h, 10 μM [7]","Papp B→A at 2 h, 10 μM [7]","efflux ratio at 2 h, 10 μM [7]",Amount of substance in the sample in % (chemical stability) [8]
"C=CC(=O)N1CCC[C@@H](n2nc(-c3ccc(-n4ccc(=O)cc4)cc3F)c3cncc(Cl)c32)C1 [BCD-BTK-204, (R)-1-(4-(1-(1-acryloylpiperidin-3-yl)-7-chloro-1H-pyrazolo[4,3-c]pyridin-3-yl)-3-fluorophenyl)pyridin-4(1H)-one]",21 µM,20.9 µM,23.5 µM,62 µM,2.95,91.9%,,,,
"C=CC(=O)N1CCC[C@@H](n2nc(-c3ccc(-n4ccc(=O)cc4)c(F)c3)c3cncc(Cl)c32)C1 [BCD-BTK-205, (R)-1-(4-(1-(1-acryloylpiperidin-3-yl)-7-chloro-1H-pyrazolo[4,3-c]pyridin-3-yl)-2-fluorophenyl)pyridin-4(1H)-one]",16.6 µM,24.9 µM,20.2 µM,57.2 µM,3.45,88.6%,,,,
"C=CC(=O)N1CCC[C@@H](n2nc(-c3ccc(C(=O)Nc4ccc(F)cn4)cc3)c3cncc(Cl)c32)C1 [BCD-BTK-212, (R)-4-(1-(1-acryloylpiperidin-3-yl)-7-chloro-1H-pyrazolo[4,3-c]pyridin-3-yl)-N-(5-fluoropyridin-2-yl)benzamide]",3.5 µM,14.8 µM,,28.1 µM,8.01,90.8%,,,,
"C=CC(=O)N1CCC[C@@H](n2nc(-c3ccc(Oc4ccncc4C#N)cc3)c3cncc(C#N)c32)C1 [BCD-BTK-213, (R)-1-(1-acryloylpiperidin-3-yl)-3-(4-(3-cyanopyridin-4-yloxy)phenyl)-1H-pyrazolo[4,3-c]pyridine-7-carbonitrile]",3.19 µM,9.7 µM,19.7 µM,> 100 µM,>31.3,,8.39 ×10⁻⁶ cm/s,5.17 ×10⁻⁶ cm/s,0.62,
"C=CC(=O)N1CCC[C@@H](n2nc(-c3ccc(C(=O)Nc4cc(C(F)(F)CC)ccn4)cc3)c3c(N)ncc(Cl)c32)C1 [BCD-BTK-231, (R)-4-(1-(1-acryloylpiperidin-3-yl)-4-amino-7-chloro-1H-pyrazolo[4,3-c]pyridin-3-yl)-N-(4-(1,1-difluoropropyl)pyridin-2-yl)benzamide]",2.26 µM,3.39 µM,,9.08 µM,4.01,93.1%,9.8 ×10⁻⁶ cm/s,1.84 ×10⁻⁶ cm/s,0.19,100%
"C=CC(=O)N1CCC[C@@H](n2nc(-c3ccc(Oc4ccncc4C#N)cc3)c3c(N)ncc(Cl)c32)C1 [BCD-BTK-232, (R)-4-(4-(1-(1-acryloylpiperidin-3-yl)-4-amino-7-chloro-1H-pyrazolo[4,3-c]pyridin-3-yl)phenoxy)nicotinonitrile]",15.3 µM,10.8 µM,,31.1 µM,2.04,88.6%,6.27 ×10⁻⁶ cm/s,3.58 ×10⁻⁶ cm/s,0.57,95.9%
"CC#CC(=O)N1CC(Cn2nc(-c3ccc(Oc4ccncc4)cc3)c3cncc(Cl)c32)C1 [BCD-BTK-261, 1-(3-((7-chloro-3-(4-(pyridin-4-yloxy)phenyl)-1H-pyrazolo[4,3-c]pyridin-1-yl)methyl)azetidin-1-yl)but-2-yn-1-one]",4.27 µM,5.01 µM,,8.33 µM,1.95,100.0%,8.3 ×10⁻⁶ cm/s,0.95 ×10⁻⁶ cm/s,0.11,100%
"C=CC(=O)N1CCC[C@H]1Cn1nc(-c2ccc(Oc3ccncc3)cc2)c2cncc(Cl)c21 [BCD-BTK-263, (S)-1-(2-((7-chloro-3-(4-(pyridin-4-yloxy)phenyl)-1H-pyrazolo[4,3-c]pyridin-1-yl)methyl)pyrrolidin-1-yl)prop-2-en-1-one]",20.6 µM,35.2 µM,,> 50 µM,>2.42,86.7%,,,,100%
"CC#CC(=O)N1CC[C@@H](n2nc(-c3ccc(Oc4ccncc4)cc3)c3cncc(Cl)c32)C1 [BCD-BTK-265, (R)-1-(3-(7-chloro-3-(4-(pyridin-4-yloxy)phenyl)-1H-pyrazolo[4,3-c]pyridin-1-yl)pyrrolidin-1-yl)but-2-yn-1-one]",7.91 µM,16.6 µM,,16.5 µM,2.09,81.7%,,,,94.8%
"C=CC(=O)N1CCC[C@@H](n2nc(-c3ccc(Oc4cncc(C(N)=O)c4)cc3)c3cncc(F)c32)C1 [BCD-BTK-274, (R)-5-(4-(1-(1-acryloylpiperidin-3-yl)-7-fluoro-1H-pyrazolo[4,3-c]pyridin-3-yl)phenoxy)nicotinamide]",40.1 µM,> 100 µM,,38 µM,0.95,91.3%,,,,100%
"C=CC(=O)N1CCC[C@@H](n2nc(-c3cnc(C(=O)Nc4cccc(F)n4)nc3)c3cncc(Cl)c32)C1 [BCD-BTK-277, (R)-5-(1-(1-acryloylpiperidin-3-yl)-7-chloro-1H-pyrazolo[4,3-c]pyridin-3-yl)-N-(6-fluoropyridin-2-yl)pyrimidine-2-carboxamide]",17.9 µM,30.1 µM,20.6 µM,41.9 µM,2.33,,,,,99.8%
"CC#CC(=O)N1CCC[C@@H](n2nc(-c3ccc(C(=O)Nc4ccccn4)cc3)c3cncc(Cl)c32)C1 [BCD-BTK-289, (R)-4-(1-(1-(but-2-ynoyl)piperidin-3-yl)-7-chloro-1H-pyrazolo[4,3-c]pyridin-3-yl)-N-(pyridin-2-yl)benzamide]",10.2 µM,8.29 µM,,18.8 µM,1.85,100.0%,,,,100%
